We go through 2 compounds from paper PMC5458547, “Discovery of first-in-class reversible dual small molecule inhibitors against G9a and DNMTs in hematological malignancies” (Nature Communications, 2017).

As usually defined, the GI50 is the concentration giving 50% growth inhibition. A lower GI50 goes with greater sensitivity of the cells. For orientation: IC50 means the concentration that gives 50% inhibition.

The test system of one assay is DB. Put plainly: Cell proliferation assay (MTS). The settings on record: Homo sapiens, GC-DLBCL, 48 h. It counts as cell-based.
Another assay deals with BxPC3. Put plainly: Cell proliferation assay (MTS). Type of assay: cell-based. To be noted: Homo sapiens, BXPC-3; Pancreas.
The target of the next assay is T1, hERG potassium channels (Homo sapiens, UniProt Q12809).
T1 construct: purchased Life technologies PV5365
As to the kind of experiment: hERG blockade assay (Predictor fluorescence polarization). The settings on record: read-out: hERG binding IC50.

T1 sequence (Q12809 whole entry): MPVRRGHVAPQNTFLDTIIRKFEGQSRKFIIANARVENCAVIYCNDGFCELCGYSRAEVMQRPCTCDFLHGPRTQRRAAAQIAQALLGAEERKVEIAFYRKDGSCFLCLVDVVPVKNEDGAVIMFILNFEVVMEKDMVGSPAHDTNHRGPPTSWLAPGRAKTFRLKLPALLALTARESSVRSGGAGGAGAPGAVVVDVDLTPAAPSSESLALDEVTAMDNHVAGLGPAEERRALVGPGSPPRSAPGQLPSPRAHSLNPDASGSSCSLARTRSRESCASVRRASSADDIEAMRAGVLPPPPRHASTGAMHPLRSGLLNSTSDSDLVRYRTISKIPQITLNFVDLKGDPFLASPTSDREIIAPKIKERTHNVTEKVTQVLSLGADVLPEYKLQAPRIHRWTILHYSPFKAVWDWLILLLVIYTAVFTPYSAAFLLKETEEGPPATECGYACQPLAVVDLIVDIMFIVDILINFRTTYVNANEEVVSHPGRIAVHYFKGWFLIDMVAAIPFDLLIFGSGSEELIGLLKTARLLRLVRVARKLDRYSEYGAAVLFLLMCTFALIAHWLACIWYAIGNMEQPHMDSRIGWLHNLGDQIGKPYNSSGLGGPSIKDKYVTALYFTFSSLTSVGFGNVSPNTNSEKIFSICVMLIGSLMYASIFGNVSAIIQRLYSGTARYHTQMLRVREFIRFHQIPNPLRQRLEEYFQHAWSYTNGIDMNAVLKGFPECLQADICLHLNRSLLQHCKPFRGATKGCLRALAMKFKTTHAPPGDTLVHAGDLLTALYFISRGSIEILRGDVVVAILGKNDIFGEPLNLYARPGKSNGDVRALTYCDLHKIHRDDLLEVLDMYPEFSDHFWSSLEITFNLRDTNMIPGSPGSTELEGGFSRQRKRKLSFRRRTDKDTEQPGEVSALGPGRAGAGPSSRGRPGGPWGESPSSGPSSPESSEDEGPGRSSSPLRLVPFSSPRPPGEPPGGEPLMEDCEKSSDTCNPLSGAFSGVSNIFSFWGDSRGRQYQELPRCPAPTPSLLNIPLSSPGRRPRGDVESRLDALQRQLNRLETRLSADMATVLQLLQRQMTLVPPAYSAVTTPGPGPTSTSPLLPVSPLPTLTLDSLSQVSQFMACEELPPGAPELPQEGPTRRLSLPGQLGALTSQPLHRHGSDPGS

For the compound `COc1cc2c(NC3CCN(C)CC3)cc(-c3ccc(C)o3)nc2cc1OCCCN1CCCC1` [CM-272, 6-methoxy-2-(5-methyl-2-furyl)-N-(1-methyl-4-piperidyl)-7-(3-pyrrolidin-1-ylpropoxy)quinolin-4-amine], the figures for the concentration for 50% growth inhibition (GI50) in the assay with DB and with BxPC3 were 1310 nM and 319 nM, respectively.
For the compound `COc1cc2c(NCC3CCN(C)CC3)cc(-c3ccc(C)o3)nc2cc1OCCCN1CCCC1` [CM-579, 6-methoxy-2-(5-methyl-2-furyl)-N-[(1-methyl-4-piperidyl)methyl]-7-(3-pyrrolidin-1-ylpropoxy)quinolin-4-amine], at hERG potassium channels, the half-maximal inhibitory concentration (IC50) is above 100000 nM.
